Assay [1] concerns Pyricularia oryzae. It is filed as in vivo. The note with it: 200 ppm spray on rice (Koshihikari, 3 leaf stage), inoculated next day; lesion numbers on third leaves after 7 days in green house, graded by Table 5.
The subject of assay [2] is Colletotrichum lagenarium. The note with it: 200 ppm spray on cucumber (3 leaf stage), inoculated next day; lesion numbers on first and second leaves after 7 days in green house, graded by Table 5.

Structures are written as SMILES.

Consider `COc1ccc(C(=O)NCc2cc(CC(C)C)no2)cc1` [III-229, N-[(3-isobutyl-5-isoxazolyl)methyl]-4-methoxybenzamide], for which the “Evaluation (effect for rice blast)” value in assay [1] is listed as 5 (0). The “Evaluation (effect for cucumber anthracnose)” value in assay [2] is given as 5 (0).

As for `N#CCc1cc(CNC(=O)NC2CCCCC2)on1` [II-113, 3-(3-cyanomethyl-5-isoxazolyl)methyl-1-cyclohexylurea], the “Evaluation (effect for rice blast)” value in assay [1] was 2 (11˜20). In addition, the “Evaluation (effect for cucumber anthracnose)” value in assay [2] is given as 1 (21˜41).

Take `Cc1ccc(-c2cc(CNC(=O)c3ccccc3O)on2)cc1` [III-134, N-[(3-(4-tolyl)-5-isoxazolyl)methyl]-2-hydroxybenzamide]: the “Evaluation (effect for rice blast)” value in assay [1] is 3 (6˜10). Also, in assay [2], the “Evaluation (effect for cucumber anthracnose)” value is on record as 5 (0).

Turning to `Cc1ccc(C(=O)NCc2cc(-c3ccc(N(C)C)cc3)no2)cc1` [III-61, N-{[3-(4-dimethylaminophenyl)-5-isoxazolyl]methyl}-4-methylbenzamide], in assay [1], the “Evaluation (effect for rice blast)” value was 5 (0). For the same compound, in assay [2], the “Evaluation (effect for cucumber anthracnose)” value is 4 (1˜5).

Turning to `CSc1ccc(-c2cc(CNC(=O)c3ccc(C)cc3)on2)cc1` [III-28, N-{[3-(4-methylthiophenyl)-5-isoxazolyl]methyl}-4-methylbenzamide], the “Evaluation (effect for rice blast)” value in assay [1] is listed as 5 (0). The “Evaluation (effect for cucumber anthracnose)” value in assay [2] is 4 (1˜5).

As to `COc1ccc(C(=O)NCc2cc(-c3ccsc3)no2)cc1` [III-220, N-{[3-(3-thienyl)-5-isoxazolyl]methyl}-4-methoxylbenzamide], in assay [1], the “Evaluation (effect for rice blast)” value was 3 (6˜10). Further, in assay [2], the “Evaluation (effect for cucumber anthracnose)” value is reported as 3 (6˜10).

Turning to `CC(C)Cc1cc(CNC(=O)c2cccc3ccccc23)on1` [III-262, N-[(3-isobutyl-5-isoxazolyl)methyl]-1-naphthalenecarboxamide], the “Evaluation (effect for rice blast)” value in assay [1] is 5 (0). For the same compound, the “Evaluation (effect for cucumber anthracnose)” value in assay [2] is reported as 5 (0).

As to `O=C(NCc1cc(-c2ccccc2)no1)c1cccs1` [III-177, (3-phenyl-5-isoxazolyl)methylaminocarbonyl-2-thiophene], the “Evaluation (effect for rice blast)” value in assay [1] is 4 (1˜5). Moreover, in assay [2], the “Evaluation (effect for cucumber anthracnose)” value is given as 4 (1˜5).

Take `O=C(NCc1cc(-c2ccccc2)no1)c1ccc2c(c1)OCO2` [III-180, 5-(3-phenyl-5-isoxazolyl)methylaminocarbonyl-1,3-benzodioxol]: the “Evaluation (effect for rice blast)” value in assay [1] is listed as 5 (0). In addition, the “Evaluation (effect for cucumber anthracnose)” value in assay [2] is listed as 5 (0).

On to `COc1ccc(C(=O)NCc2cc(C(OC)OC)no2)cc1` [III-249, N-[(3-dimethoxymethyl-5-isoxazolyl)methyl]-4-methoxybenzamide], for which the “Evaluation (effect for rice blast)” value in assay [1] is 2 (11˜20). The “Evaluation (effect for cucumber anthracnose)” value in assay [2] is reported as 2 (11˜20).

Take `COc1ccc(C(=O)NCc2cc(C=C(C)C)no2)cc1` [III-216, N-{[3-(2-methyl-1-propenyl)-5-isoxazolyl]methyl}-4-methoxylbenzamide]: the “Evaluation (effect for rice blast)” value in assay [1] is 4 (1˜5). Moreover, the “Evaluation (effect for cucumber anthracnose)” value in assay [2] was 4 (1˜5).

Take `COc1ccc(C(=O)NCc2cc(COc3cccc(F)c3)no2)cc1` [IV-58, N-{[3-(3-fluorophenyl)oxymethyl-5-isoxazolyl]methyl}-4-methoxybenzamide]: in assay [1], the “Evaluation (effect for rice blast)” value was 5 (0). Also, in assay [2], the “Evaluation (effect for cucumber anthracnose)” value is 5 (0).

Consider `CC(C)Cc1cc(CNC(=O)Cc2ccccc2)on1` [I-64, N-[(3-isobutyl-5-isoxazolyl)methyl]phenylacetamide], for which, in assay [1], the “Evaluation (effect for rice blast)” value is on record as 2 (11˜20). Moreover, the “Evaluation (effect for cucumber anthracnose)” value in assay [2] was 3 (6˜10).

Turning to `COc1ccc(C(=O)NCc2cc(COc3ccc(-n4cncn4)cc3)no2)cc1` [IV-73], the “Evaluation (effect for rice blast)” value in assay [1] was 2 (11˜20). Further, the “Evaluation (effect for cucumber anthracnose)” value in assay [2] is on record as 3 (6˜10).

Regarding `COc1ccc(C(=O)NCc2cc(C3CCCCC3)no2)cc1` [III-238, N-[(3-cyclohexyl-5-isoxazolyl)methyl]-4-methoxybenzamide], in assay [1], the “Evaluation (effect for rice blast)” value was 4 (1˜5). In addition, the “Evaluation (effect for cucumber anthracnose)” value in assay [2] is recorded as 5 (0).

On to `O=C(NCc1cc(-c2ccc(F)cc2)no1)Oc1ccccc1` [I-27, phenyl{[3-(4-fluorophenyl)-5-isoxazolyl)methyl]carbamate], for which, in assay [1], the “Evaluation (effect for rice blast)” value is 5 (0). Moreover, the “Evaluation (effect for cucumber anthracnose)” value in assay [2] was 5 (0).

For `COc1ccc(C(=O)NCc2cc(-c3ccc(OC(F)(F)F)cc3)no2)cc1` [III-49, N-{[3-(4-trifluoromethoxyphenyl)-5-isoxazolyl]methyl}-4-methoxybenzamide], the “Evaluation (effect for rice blast)” value in assay [1] is reported as 5 (0). For the same compound, in assay [2], the “Evaluation (effect for cucumber anthracnose)” value is 5 (0).

On to `COc1ccc(C(=O)NCc2cc(C(C)(C)C)no2)cc1` [III-237, N-[(3-tert-butyl-5-isoxazolyl)methyl]-4-methoxybenzamide], for which the “Evaluation (effect for rice blast)” value in assay [1] was 3 (6˜10). Further, the “Evaluation (effect for cucumber anthracnose)” value in assay [2] is reported as 3 (6˜10).

For the compound `Cc1ccc(C(=O)NCc2cc(-c3ccc(C#N)cc3)no2)cc1` [III-43, N-{[3-(4-cyanophenyl)-5-isoxazolyl]methyl}-4-methylbenzamide], the “Evaluation (effect for rice blast)” value in assay [1] is on record as 5 (0). In assay [2], the “Evaluation (effect for cucumber anthracnose)” value is 4 (1˜5).

As for `COc1ccc(-c2cc(CNC(=O)c3ccc(C)cc3)on2)cc1` [III-19, N-{[3-(4-methoxyphenyl)-5-isoxazolyl]methyl}-4-methylbenzamide], the “Evaluation (effect for rice blast)” value in assay [1] is reported as 5 (0). Moreover, the “Evaluation (effect for cucumber anthracnose)” value in assay [2] is listed as 5 (0).

As to `Cc1ccc(C(=O)NCc2cc(C(=O)Nc3ccccc3)no2)cc1` [IV-115, N-[(3-phenylaminocarbonyl-5-isoxazolyl)methyl]-4-methylbenzamide], in assay [1], the “Evaluation (effect for rice blast)” value is given as 5 (0). Further, the “Evaluation (effect for cucumber anthracnose)” value in assay [2] is reported as 5 (0).

As to `CC(C)c1cc(CNC(=O)Oc2ccccc2)on1` [I-4], in assay [1], the “Evaluation (effect for rice blast)” value was 5 (0). Also, in assay [2], the “Evaluation (effect for cucumber anthracnose)” value was 5 (0).

For the compound `COc1ccc(C(=O)NCc2cc(COc3c(C)cccc3C)no2)cc1` [IV-80, N-{[3-(2,6-dimethylphenyl)oxymethyl-5-isoxazolyl]methyl}-4-methoxybenzamide], the “Evaluation (effect for rice blast)” value in assay [1] was 4 (1˜5). Also, the “Evaluation (effect for cucumber anthracnose)” value in assay [2] is 4 (1˜5).

`CCCCCC#Cc1cc(CNC(=O)c2ccc(OC)cc2)on1` [III-248, N-{[3-(1-heptynyl)-5-isoxazolyl]methyl}-4-methoxybenzamide]: the “Evaluation (effect for rice blast)” value in assay [1] is 3 (6˜10). Besides, the “Evaluation (effect for cucumber anthracnose)” value in assay [2] was 2 (11˜20).

In the case of `COc1ccc(C(=O)NCc2cc(COc3ccncc3)no2)cc1` [IV-90, N-{[3-(4-pyridyl)oxymethyl-5-isoxazolyl]methyl}-4-methoxybenzamide], the “Evaluation (effect for rice blast)” value in assay [1] was 3 (6˜10). The “Evaluation (effect for cucumber anthracnose)” value in assay [2] is on record as 3 (6˜10).

With `COc1ccc(C(=O)NCc2cc(/C=C/c3ccco3)no2)cc1` [IV-89, N-{[3-(2-(2-furyl)ethenyl)-5-isoxazolyl]methyl}-4-methoxybenzamide], the “Evaluation (effect for rice blast)” value in assay [1] is 5 (0). The “Evaluation (effect for cucumber anthracnose)” value in assay [2] is reported as 5 (0).

Consider `CNC(=O)c1ccc(OCc2cc(CNC(=O)c3ccc(OC)cc3)on2)cc1` [IV-88, N-{[3-(4-methylaminocarbonylphenyl)oxymethyl-5-isoxazolyl]methyl}-4-methoxybenzamide], for which the “Evaluation (effect for rice blast)” value in assay [1] is recorded as 3 (6˜10). In assay [2], the “Evaluation (effect for cucumber anthracnose)” value is 3 (6˜10).

In the case of `O=C(NCc1cc(-c2ccccc2)no1)c1ccccc1Cl` [III-122, N-[(3-phenyl-5-isoxazolyl)methyl]-2-chlorobenzamide], in assay [1], the “Evaluation (effect for rice blast)” value is on record as 4 (1˜5). Besides, in assay [2], the “Evaluation (effect for cucumber anthracnose)” value was 4 (1˜5).

With `CNC(=O)c1cc(CNC(=O)NC2CCCCC2)on1` [II-110, 3-(3-methylaminocarbonyl-5-isoxazolyl)methyl-1-cyclohexylurea], the “Evaluation (effect for rice blast)” value in assay [1] is reported as 1 (21˜41). The “Evaluation (effect for cucumber anthracnose)” value in assay [2] is 1 (21˜41).

For the compound `COc1ccc(C(=O)NCc2cc(-c3ccc(OC)cc3F)no2)cc1` [III-215, N-{[3-(2-fluoro-4-methoxyphenyl)-5-isoxazolyl]methyl}-4-methoxylbenzamide], the “Evaluation (effect for rice blast)” value in assay [1] was 5 (0). Further, the “Evaluation (effect for cucumber anthracnose)” value in assay [2] was 5 (0).

With `Cc1ccc(C(=O)NCc2cc(COc3ccccc3)no2)cc1` [IV-46, N-[(3-phenoxymethyl-5-isoxazolyl)methyl]-4-methylbenzamide], in assay [1], the “Evaluation (effect for rice blast)” value is given as 5 (0). Moreover, the “Evaluation (effect for cucumber anthracnose)” value in assay [2] is listed as 5 (0).

Take `COc1ccc(C(=O)NCc2cc(COc3cccc(C)c3)no2)cc1` [IV-48, N-{[3-(3-methylphenyl)oxymethyl-5-isoxazolyl]methyl}-4-methoxybenzamide]: in assay [1], the “Evaluation (effect for rice blast)” value is listed as 3 (6˜10). Further, in assay [2], the “Evaluation (effect for cucumber anthracnose)” value was 2 (11˜20).

In the case of `COc1ccc(C(=O)NCc2cc(-c3cc4ccccc4n3C)no2)cc1` [III-223, N-{[3-(1-methylindol-2-yl)-5-isoxazolyl]methyl}-4-methoxybenzamide], the “Evaluation (effect for rice blast)” value in assay [1] was 5 (0). In assay [2], the “Evaluation (effect for cucumber anthracnose)” value is given as 5 (0).

Turning to `Cc1ccc(C(=O)NCc2cc(-c3ccncc3)no2)cc1` [III-219, N-{[3-(4-pyridyl)-5-isoxazolyl]methyl}-4-methylbenzamide], the “Evaluation (effect for rice blast)” value in assay [1] was 3 (6˜10). Besides, the “Evaluation (effect for cucumber anthracnose)” value in assay [2] is on record as 3 (6˜10).

With `N#Cc1ccc(C(=O)NCc2cc(-c3ccccc3)no2)cc1` [III-133, N-[(3-phenyl-5-isoxazolyl)methyl]-4-cyanobenzamide], the “Evaluation (effect for rice blast)” value in assay [1] was 4 (1˜5). For the same compound, the “Evaluation (effect for cucumber anthracnose)” value in assay [2] is given as 4 (1˜5).

For `Cc1ccc(-c2cc(CNC(=O)c3ccccc3)on2)cc1` [III-10, N-{[3-(4-tolyl)-5-isoxazolyl]methyl}benzamide], in assay [1], the “Evaluation (effect for rice blast)” value is recorded as 5 (0). Also, the “Evaluation (effect for cucumber anthracnose)” value in assay [2] is recorded as 5 (0).
